According to patent publication US6355799B1, “Substituted benzene compounds, process for their preparation, and herbicidal and defoliant compositions containing them” (ISK Americas Incorporated, priority 1997, dated 2002):

Tests used:
Assay type in all cases: in vivo
[1] = test system: redroot pigweed (Amaranthus retroflexus, AMARE); test: Pre-emerge test, greenhouse herbicide activity screening
Procedure, shortened: (§1)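 Plants grown in 10 cm pots of sandy loam mix received acetone-dissolved compounds through a moving flat-fan nozzle. Doses ranged from 15 to 1000 g ai/ha. Pre-emerge pots were seeded one day earlier, post-emerge pots 8–21 days earlier. Fourteen days on, each pot was graded 0–100 for damage.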

[2] = test system: barnyardgrass (Echinochloa crus-galli, ECHCG); test: as above
Procedure, shortened: as §1

[3] = test system: green foxtail (Setaria viridis, SETVI); test: as above
Procedure, shortened: as §1

[4] = test system: ivyleaf morningglory (Ipomoea hederacea, IPOHE); test: as above
Procedure, shortened: as §1

[5] = test system: johnsongrass (Sorghum halepense, SORHA); test: as above
Procedure, shortened: as §1

[6] = test system: lambsquarters (Chenopodium album, CHEAL); test: as above
Procedure, shortened: as §1

[7] = test system: large crabgrass (Digitaria sanguinalis, DIGSA); test: as above
Procedure, shortened: as §1

[8] = test system: sicklepod (Cassia obtusifolia, CASOB); test: as above
Procedure, shortened: as §1

[9] = test system: velvetleaf (Abutilon theophrasti, ABUTH); test: as above
Procedure, shortened: as §1

[10] = test system: field corn (Zea mays L., var. Dekalb 535, CORN); test: Pre-emerge test, crop safety
Procedure, shortened: (§2)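 Compounds in acetone were track-sprayed at 187 l/ha, 15–1000 g ai/ha, onto sandy loam pots. Pre-emerge seeds were sown one day before spraying, with surface watering afterwards. Post-emerge plants were at the 2–3 leaf stage and sprayed with 0.25% v/v non-ionic surfactant. Injury was rated 0–100 at 14 days.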

[11] = test system: upland rice (Oryza sp., var. Tebonnet, RICE); test: Pre-emerge test, crop safety
Procedure, shortened: as §2

[12] = test system: barnyardgrass (Echinochloa crus-galli, ECHCG); test: Post-emerge test, greenhouse herbicide activity screening; details: post-emerge; for Post-emerge Herbicidal Activity ECHCG: phytotoxicity rating 0-100 at 14 days after application; for phytotoxicity rating ECHCG: 14 days after application, rating scale 0-100
Procedure, shortened: (§3)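 Visual ratings on a 0-100 scale (0 no damage, 100 all plants dead) were taken at 14 days after treatment. Rates of 15-1000 g ai/ha in acetone, 187 l/ha, were sprayed onto soil one day after planting (pre-emerge) or onto 2-3 leaf plants with 0.25% v/v surfactant (post-emerge).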

[13] = test system: green foxtail (Setaria viridis, SETVI); test: as above; details: post-emerge; for Post-emerge Herbicidal Activity SETVI: phytotoxicity rating 0-100 at 14 days after application; for phytotoxicity rating SETVI: 14 days after application, rating scale 0-100
Procedure, shortened: as §3

[14] = test system: ivyleaf morningglory (Ipomoea hederacea, IPOHE); test: as above; details: post-emerge; for Post-emerge Herbicidal Activity IPOHE: phytotoxicity rating 0-100 at 14 days after application; for phytotoxicity rating IPOHE: 14 days after application, rating scale 0-100
Procedure, shortened: as §3

[15] = test system: johnsongrass (Sorghum halepense, SORHA); test: as above; details: post-emerge; for Post-emerge Herbicidal Activity SORHA: phytotoxicity rating 0-100 at 14 days after application; for phytotoxicity rating SORHA: 14 days after application, rating scale 0-100
Procedure, shortened: as §3

[16] = test system: lambsquarters (Chenopodium album, CHEAL); test: as above; details: post-emerge; for Post-emerge Herbicidal Activity CHEAL: phytotoxicity rating 0-100 at 14 days after application; for phytotoxicity rating CHEAL: 14 days after application, rating scale 0-100
Procedure, shortened: as §3

[17] = test system: large crabgrass (Digitaria sanguinalis, DIGSA); test: as above; details: post-emerge; for Post-emerge Herbicidal Activity DIGSA: phytotoxicity rating 0-100 at 14 days after application; for phytotoxicity rating DIGSA: 14 days after application, rating scale 0-100
Procedure, shortened: as §3

[18] = test system: redroot pigweed (Amaranthus retroflexus, AMARE); test: as above; details: post-emerge; for Post-emerge Herbicidal Activity AMARE: phytotoxicity rating 0-100 at 14 days after application; for phytotoxicity rating AMARE: 14 days after application
Procedure, shortened: as §3

[19] = test system: sicklepod (Cassia obtusifolia, CASOB); test: as above; details: post-emerge; for Post-emerge Herbicidal Activity CASOB: phytotoxicity rating 0-100 at 14 days after application; for phytotoxicity rating CASOB: 14 days after application, rating scale 0-100
Procedure, shortened: as §3

[20] = test system: velvetleaf (Abutilon theophrasti, ABUTH); test: as above; details: post-emerge; for Post-emerge Herbicidal Activity ABUTH: phytotoxicity rating 0-100 at 14 days after application; for phytotoxicity rating ABUTH: 14 days after application, rating scale 0-100
Procedure, shortened: as §3

[21] = test system: field corn (Zea mays L., var. Dekalb 535, CORN); test: Post-emerge test, crop safety; details: post-emerge; for Post-emerge Herbicidal Activity CORN: crop damage rating 0-100 at 14 days after application; for phytotoxicity rating CORN (crop damage): 14 days after application, rating scale 0-100
Procedure, shortened: (§4)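 Each test used a mechanized track sprayer delivering 187 l/ha of acetone solution at 15–1000 g ai/ha. Post-emerge foliage at 2–3 leaves was treated with added 0.25% v/v non-ionic surfactant and bottom-watered only. Injury was assessed on day 14, where 100 means total kill.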

[22] = test system: upland rice (Oryza sp., var. Tebonnet, RICE); test: Post-emerge test, crop safety; details: post-emerge; for Post-emerge Herbicidal Activity RICE: crop damage rating 0-100 at 14 days after application; for phytotoxicity rating RICE (crop damage): 14 days after application, rating scale 0-100
Procedure, shortened: as §4

[23] = pre-emerge, rate 63 g ai/ha, phytotoxicity rating 0-100 at 14 days after application
[24] = pre-emerge, rate 250 g ai/ha, phytotoxicity rating 0-100 at 14 days after application
[25] = crop damage, pre-emerge, rate 63 g ai/ha, phytotoxicity rating 0-100 at 14 days after application
[26] = crop damage, pre-emerge, rate 250 g ai/ha, phytotoxicity rating 0-100 at 14 days after application
[27] = 63 g ai/ha, phytotoxicity rating 0-100, 14 days after application
[28] = 250 g ai/ha, phytotoxicity rating 0-100, 14 days after application
[29] = 63 g ai/ha, crop damage rating 0-100, 14 days after application
[30] = 250 g ai/ha, crop damage rating 0-100, 14 days after application

CC(C)Oc1c(Cl)cc(F)c(N2C(=O)C3=C(CCCC3)C2=O)c1NC(=O)c1ccc(F)cc1F [8-18]
Pre-emerge Herbicidal Activity AMARE [1, 23]: 60
Pre-emerge Herbicidal Activity AMARE [1, 24]: 100
Pre-emerge Herbicidal Activity ECHCG [2, 23]: 10
Pre-emerge Herbicidal Activity ECHCG [2, 24]: 90
Pre-emerge Herbicidal Activity SETVI [3, 23]: 50
Pre-emerge Herbicidal Activity SETVI [3, 24]: 100
Pre-emerge Herbicidal Activity IPOHE [4, 23]: 0
Pre-emerge Herbicidal Activity IPOHE [4, 24]: 30
Pre-emerge Herbicidal Activity SORHA [5, 23]: 0
Pre-emerge Herbicidal Activity SORHA [5, 24]: 50
Pre-emerge Herbicidal Activity CHEAL [6, 23]: 70
Pre-emerge Herbicidal Activity CHEAL [6, 24]: 100
Pre-emerge Herbicidal Activity DIGSA [7, 23]: 10
Pre-emerge Herbicidal Activity DIGSA [7, 24]: 80
Pre-emerge Herbicidal Activity CASOB [8, 23]: 0
Pre-emerge Herbicidal Activity CASOB [8, 24]: 60
Pre-emerge Herbicidal Activity ABUTH [9, 23]: 90
Pre-emerge Herbicidal Activity ABUTH [9, 24]: 100
Pre-emerge Herbicidal Activity CORN [10, 25]: 0
Pre-emerge Herbicidal Activity CORN [10, 26]: 10
Pre-emerge Herbicidal Activity RICE [11, 25]: 10
Pre-emerge Herbicidal Activity RICE [11, 26]: 30
Post-emerge Herbicidal Activity ECHCG ([12]; 63 g ai/ha): 10
Post-emerge Herbicidal Activity ECHCG ([12]; 250 g ai/ha): 30
Post-emerge Herbicidal Activity SETVI ([13]; 63 g ai/ha): 30
Post-emerge Herbicidal Activity SETVI ([13]; 250 g ai/ha): 30
Post-emerge Herbicidal Activity IPOHE ([14]; 63 g ai/ha): 50
Post-emerge Herbicidal Activity IPOHE ([14]; 250 g ai/ha): 60
Post-emerge Herbicidal Activity SORHA ([15]; 63 g ai/ha): 10
Post-emerge Herbicidal Activity SORHA ([15]; 250 g ai/ha): 30
Post-emerge Herbicidal Activity CHEAL ([16]; 63 g ai/ha): 70
Post-emerge Herbicidal Activity CHEAL ([16]; 250 g ai/ha): 80
Post-emerge Herbicidal Activity DIGSA ([17]; 63 g ai/ha): 10
Post-emerge Herbicidal Activity DIGSA ([17]; 250 g ai/ha): 20
Post-emerge Herbicidal Activity AMARE ([18]; 63 g ai/ha): 100
Post-emerge Herbicidal Activity AMARE ([18]; 250 g ai/ha): 100
Post-emerge Herbicidal Activity CASOB ([19]; 63 g ai/ha): 30
Post-emerge Herbicidal Activity CASOB ([19]; 250 g ai/ha): 40
Post-emerge Herbicidal Activity ABUTH ([20]; 63 g ai/ha): 100
Post-emerge Herbicidal Activity ABUTH ([20]; 250 g ai/ha): 100
Post-emerge Herbicidal Activity CORN ([21]; 63 g ai/ha): 5
Post-emerge Herbicidal Activity CORN ([21]; 250 g ai/ha): 30
Post-emerge Herbicidal Activity RICE ([22]; 63 g ai/ha): 50
Post-emerge Herbicidal Activity RICE ([22]; 250 g ai/ha): 60

Cn1c(C(F)(F)F)cc(=O)n(-c2c(F)cc(Cl)c(OCC#N)c2NC(=O)OCc2ccccc2)c1=O [4-23]
Pre-emerge Herbicidal Activity AMARE [1, 27]: 100
Pre-emerge Herbicidal Activity AMARE [1, 28]: 100
Pre-emerge Herbicidal Activity ECHCG [2, 27]: 80
Pre-emerge Herbicidal Activity ECHCG [2, 28]: 95
Pre-emerge Herbicidal Activity SETVI [3, 27]: 80
Pre-emerge Herbicidal Activity SETVI [3, 28]: 100
Pre-emerge Herbicidal Activity IPOHE [4, 27]: 100
Pre-emerge Herbicidal Activity IPOHE [4, 28]: 80
Pre-emerge Herbicidal Activity SORHA [5, 27]: 70
Pre-emerge Herbicidal Activity SORHA [5, 28]: 90
Pre-emerge Herbicidal Activity CHEAL [6, 27]: 100
Pre-emerge Herbicidal Activity CHEAL [6, 28]: 100
Pre-emerge Herbicidal Activity DIGSA [7, 27]: 80
Pre-emerge Herbicidal Activity DIGSA [7, 28]: 100
Pre-emerge Herbicidal Activity CASOB [8, 27]: 80
Pre-emerge Herbicidal Activity CASOB [8, 28]: 100
Pre-emerge Herbicidal Activity ABUTH [9, 27]: 100
Pre-emerge Herbicidal Activity ABUTH [9, 28]: 100
Pre-emerge Herbicidal Activity CORN [10, 29]: 35
Pre-emerge Herbicidal Activity CORN [10, 30]: 90
Pre-emerge Herbicidal Activity RICE [11, 29]: 60
Pre-emerge Herbicidal Activity RICE [11, 30]: 90
phytotoxicity rating ECHCG ([12]; 63 g ai/ha): 20
phytotoxicity rating ECHCG ([12]; 250 g ai/ha): 60
phytotoxicity rating SETVI ([13]; 63 g ai/ha): 40
phytotoxicity rating SETVI ([13]; 250 g ai/ha): 70
phytotoxicity rating IPOHE ([14]; 63 g ai/ha): 100
phytotoxicity rating IPOHE ([14]; 250 g ai/ha): 100
phytotoxicity rating SORHA ([15]; 63 g ai/ha): 10
phytotoxicity rating SORHA ([15]; 250 g ai/ha): 50
phytotoxicity rating CHEAL ([16]; 63 g ai/ha): 80
phytotoxicity rating CHEAL ([16]; 250 g ai/ha): 100
phytotoxicity rating DIGSA ([17]; 63 g ai/ha): 10
phytotoxicity rating DIGSA ([17]; 250 g ai/ha): 40
phytotoxicity rating AMARE ([18]; 63 g ai/ha, rating scale 0-100 (0 no damage, 100 complete death)): 100
phytotoxicity rating AMARE ([18]; 250 g ai/ha, rating scale 0-100): 100
phytotoxicity rating CASOB ([19]; 63 g ai/ha): 80
phytotoxicity rating CASOB ([19]; 250 g ai/ha): 100
phytotoxicity rating ABUTH ([20]; 63 g ai/ha): 100
phytotoxicity rating ABUTH ([20]; 250 g ai/ha): 100
phytotoxicity rating CORN (crop damage) ([21]; 63 g ai/ha): 35
phytotoxicity rating CORN (crop damage) ([21]; 250 g ai/ha): 80
phytotoxicity rating RICE (crop damage) ([22]; 63 g ai/ha): 60
phytotoxicity rating RICE (crop damage) ([22]; 250 g ai/ha): 80
